# Assay results: ChEMBL document CHEMBL4831493 (Eur J Med Chem, 2021)
# pIC50: −log10 of the molar value. Activity calls are given as the source filed them. No cut-off for these calls is given here.
# Experiments:
# [1] = target: Acetylcholinesterase (Homo sapiens, UniProt P22303); experiment: Inhibition of human recombinant AChE preincubated for 1 min in presence of DNTB followed by addition of acetylthiocholine iodide substrate and measured after 20 mins by Ellman's method
# [2] = target: Glycogen synthase kinase-3 beta (Homo sapiens, UniProt P49841); experiment: Inhibition of human recombinant N-terminal His-tagged GSK3beta expressed in Escherichia coli using RRRPASVPPSPSLS RHS(pS)HQRR as substrate incubated for 30 mins in presence of ATP by Kinase-Glo reagent based luminescence assay
# Glycogen synthase kinase-3 beta, sequence (P49841 whole entry): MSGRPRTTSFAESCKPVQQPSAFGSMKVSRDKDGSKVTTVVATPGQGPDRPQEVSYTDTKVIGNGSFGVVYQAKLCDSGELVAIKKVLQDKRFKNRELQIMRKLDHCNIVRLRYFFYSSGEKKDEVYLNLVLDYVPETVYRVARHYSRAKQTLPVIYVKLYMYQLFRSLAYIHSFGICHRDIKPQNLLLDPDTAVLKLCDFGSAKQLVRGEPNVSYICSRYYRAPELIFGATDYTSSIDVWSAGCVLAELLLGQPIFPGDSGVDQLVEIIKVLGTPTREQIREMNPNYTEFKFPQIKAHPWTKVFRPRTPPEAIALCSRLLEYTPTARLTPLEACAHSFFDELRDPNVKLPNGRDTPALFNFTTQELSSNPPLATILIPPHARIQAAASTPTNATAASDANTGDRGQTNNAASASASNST
# [3] = target: Cholinesterase (Homo sapiens, UniProt P06276); experiment: Inhibition of BChE (unknown origin)
# Cholinesterase, sequence (P06276 whole entry): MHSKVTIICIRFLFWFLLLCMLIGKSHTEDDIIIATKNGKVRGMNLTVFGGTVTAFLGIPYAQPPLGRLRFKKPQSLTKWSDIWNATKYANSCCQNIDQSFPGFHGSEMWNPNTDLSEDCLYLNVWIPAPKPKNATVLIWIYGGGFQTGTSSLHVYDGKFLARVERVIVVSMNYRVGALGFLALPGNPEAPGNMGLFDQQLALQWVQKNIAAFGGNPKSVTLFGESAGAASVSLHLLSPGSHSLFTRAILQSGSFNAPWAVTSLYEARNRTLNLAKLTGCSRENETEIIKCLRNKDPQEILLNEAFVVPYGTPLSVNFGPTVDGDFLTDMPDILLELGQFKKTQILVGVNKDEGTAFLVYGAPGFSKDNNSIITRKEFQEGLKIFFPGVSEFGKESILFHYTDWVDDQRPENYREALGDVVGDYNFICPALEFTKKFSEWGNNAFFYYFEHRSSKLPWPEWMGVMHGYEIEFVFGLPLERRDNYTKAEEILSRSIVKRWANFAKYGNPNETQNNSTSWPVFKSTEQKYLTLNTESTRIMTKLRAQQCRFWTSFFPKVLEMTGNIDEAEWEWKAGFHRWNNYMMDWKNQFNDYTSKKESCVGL
# [4] = target: Cholinesterases; ACHE & BCHE (Homo sapiens) (UniProt P06276+P22303); experiment: Selectivity index, ratio of IC50 for BChE (unknown origin) to IC50 for human recombinant AChE; assay type: protein assay
# Cholinesterases; ACHE & BCHE (Homo sapiens), sequence (P06276 whole entry, looked up): as the sequence (P06276 whole entry) above
# Cholinesterases; ACHE & BCHE (Homo sapiens), sequence (P22303 whole entry, looked up): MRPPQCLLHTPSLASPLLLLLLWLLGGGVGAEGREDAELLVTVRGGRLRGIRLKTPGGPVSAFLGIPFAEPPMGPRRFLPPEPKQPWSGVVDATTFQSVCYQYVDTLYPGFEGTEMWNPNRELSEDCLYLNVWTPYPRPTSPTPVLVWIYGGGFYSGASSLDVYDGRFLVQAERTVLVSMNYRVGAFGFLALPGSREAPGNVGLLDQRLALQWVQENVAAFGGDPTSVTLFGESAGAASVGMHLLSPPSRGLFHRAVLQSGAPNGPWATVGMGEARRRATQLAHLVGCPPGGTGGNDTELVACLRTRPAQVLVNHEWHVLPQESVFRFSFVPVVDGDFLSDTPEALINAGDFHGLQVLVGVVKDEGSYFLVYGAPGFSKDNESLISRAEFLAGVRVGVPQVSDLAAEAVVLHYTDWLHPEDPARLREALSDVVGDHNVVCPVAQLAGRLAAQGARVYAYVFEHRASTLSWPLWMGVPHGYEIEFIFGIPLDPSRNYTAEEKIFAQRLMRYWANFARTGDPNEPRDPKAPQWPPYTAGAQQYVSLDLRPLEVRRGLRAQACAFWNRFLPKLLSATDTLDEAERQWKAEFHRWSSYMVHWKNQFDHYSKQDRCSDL
# [5] = target: Cyclin-dependent kinase 2 (Homo sapiens) (UniProt P24941); experiment: Inhibition of CDK2 (unknown origin) at 0.3 uM
# [6] = target: Mitogen-activated protein kinase 11 (Homo sapiens) (UniProt Q15759); experiment: Inhibition of p38beta (unknown origin) at 0.3 uM
# Mitogen-activated protein kinase 11 (Homo sapiens), sequence (Q15759 whole entry): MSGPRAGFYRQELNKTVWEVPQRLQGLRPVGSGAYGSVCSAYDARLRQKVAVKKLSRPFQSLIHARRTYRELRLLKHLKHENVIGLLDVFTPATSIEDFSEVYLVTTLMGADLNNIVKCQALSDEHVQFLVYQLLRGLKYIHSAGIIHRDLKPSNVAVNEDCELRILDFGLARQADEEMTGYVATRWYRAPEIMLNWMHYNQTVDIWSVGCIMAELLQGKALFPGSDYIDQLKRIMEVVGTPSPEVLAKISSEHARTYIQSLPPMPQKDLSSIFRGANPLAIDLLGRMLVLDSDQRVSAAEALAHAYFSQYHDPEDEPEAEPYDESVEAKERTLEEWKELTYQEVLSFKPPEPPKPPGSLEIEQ
# [7] = target: Mitogen-activated protein kinase 13 (Homo sapiens) (UniProt O15264); experiment: Inhibition of p38delta (unknown origin) at 0.3 uM
# Mitogen-activated protein kinase 13 (Homo sapiens), sequence (O15264 whole entry): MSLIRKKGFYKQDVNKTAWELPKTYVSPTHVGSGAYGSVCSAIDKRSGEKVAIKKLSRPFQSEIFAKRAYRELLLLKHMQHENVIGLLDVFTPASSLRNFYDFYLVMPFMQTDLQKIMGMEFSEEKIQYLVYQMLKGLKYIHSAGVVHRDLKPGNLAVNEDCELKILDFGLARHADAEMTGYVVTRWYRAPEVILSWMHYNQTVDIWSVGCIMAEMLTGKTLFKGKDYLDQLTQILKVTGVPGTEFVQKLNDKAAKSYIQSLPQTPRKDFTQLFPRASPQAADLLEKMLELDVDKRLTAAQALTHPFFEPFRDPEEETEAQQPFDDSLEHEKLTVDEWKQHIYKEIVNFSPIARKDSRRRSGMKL
# [8] = target: Dual specificity tyrosine-phosphorylation-regulated kinase 1A (Homo sapiens) (UniProt Q13627); experiment: Inhibition of dyrk1 alpha (unknown origin) at 0.3 uM
# [9] = target: Mitogen-activated protein kinase 9 (Homo sapiens) (UniProt P45984); experiment: Inhibition of JNK2 (unknown origin) at 0.3 uM
# Mitogen-activated protein kinase 9 (Homo sapiens), sequence (P45984 whole entry, looked up): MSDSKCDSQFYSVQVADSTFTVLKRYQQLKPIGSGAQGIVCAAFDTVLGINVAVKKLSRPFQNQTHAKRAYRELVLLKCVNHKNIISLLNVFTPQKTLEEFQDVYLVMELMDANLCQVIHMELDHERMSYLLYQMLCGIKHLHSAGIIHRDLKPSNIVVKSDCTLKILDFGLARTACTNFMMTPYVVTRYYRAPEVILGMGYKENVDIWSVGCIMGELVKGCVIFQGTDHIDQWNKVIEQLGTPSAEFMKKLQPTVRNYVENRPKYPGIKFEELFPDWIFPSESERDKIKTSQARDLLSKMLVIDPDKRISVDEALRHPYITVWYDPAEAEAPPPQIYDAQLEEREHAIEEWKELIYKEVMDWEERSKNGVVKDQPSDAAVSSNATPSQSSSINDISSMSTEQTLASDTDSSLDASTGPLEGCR
# [10] = target: Mitogen-activated protein kinase 10 (Homo sapiens) (UniProt P53779); experiment: Inhibition of JNK3 (unknown origin) at 0.3 uM
# Mitogen-activated protein kinase 10 (Homo sapiens), sequence (P53779 whole entry): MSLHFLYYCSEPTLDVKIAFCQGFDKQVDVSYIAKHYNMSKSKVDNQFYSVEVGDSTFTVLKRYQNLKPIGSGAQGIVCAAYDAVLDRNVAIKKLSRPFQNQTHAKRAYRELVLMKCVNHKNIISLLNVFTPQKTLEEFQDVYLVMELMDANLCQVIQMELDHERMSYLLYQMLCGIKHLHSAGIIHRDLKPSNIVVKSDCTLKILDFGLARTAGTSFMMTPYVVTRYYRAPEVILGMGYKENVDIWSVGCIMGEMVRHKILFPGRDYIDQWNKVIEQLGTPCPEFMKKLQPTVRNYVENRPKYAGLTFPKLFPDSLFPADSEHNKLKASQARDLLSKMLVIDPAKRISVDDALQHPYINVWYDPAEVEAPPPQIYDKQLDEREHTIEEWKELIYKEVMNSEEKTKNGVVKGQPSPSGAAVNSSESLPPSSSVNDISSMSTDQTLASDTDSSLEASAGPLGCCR
# [11] = Effective permeability of the compound by PAMPA-BBB assay; assay type: ADME; details: read-out: Peff
# [12] = Drug level in ICR mouse brain at 10 mg/kg, po measured after 1 hr by LC/MS/MS analysis; assay type: ADME, organism-based; details: read-out: Ct
# [13] = Drug level in ICR mouse brain at 10 mg/kg, po measured after 1.5 hrs by LC/MS/MS analysis; assay type: ADME, organism-based; details: read-out: Ct
# [14] = Drug level in ICR mouse plasma at 10 mg/kg, po measured after 1 hr by LC/MS/MS analysis; assay type: ADME, organism-based
# [15] = Drug level in ICR mouse plasma at 10 mg/kg, po measured after 1.5 hrs by LC/MS/MS analysis; assay type: ADME, organism-based
# [16] = Ratio of drug level in brain to plasma of ICR mouse at 10 mg/kg, po measured after 1 hr by LC/MS/MS analysis; assay type: ADME, organism-based; details: brain and plasma
# [17] = Ratio of drug level in brain to plasma of ICR mouse at 10 mg/kg, po measured after 1.5 hrs by LC/MS/MS analysis; assay type: ADME, organism-based; details: brain and plasma
# [18] = system: HT-22; experiment: Neuroprotective activity in mouse HT-22 cells assessed as glutamate-induced cell mortality at 6 uM preincubated for 1 hr followed by addition of glutamate and measured after 24 hrs (reference value: 58%); assay type: functional; details: time 25 hrs
# [19] = AUC (0 to infinity) in Sprague-Dawley rat at 1 mg/kg, iv measured up to 24 hrs by LC-MS/MS analysis; assay type: ADME, organism-based; design: route intravenous, dose 1 mg/kg, time <=24; details: in vivo
# [20] = Half life in Sprague-Dawley rat at 10 mg/kg, po measured up to 24 hrs by LC-MS/MS analysis; assay type: ADME, organism-based; details: in vivo
# [21] = Half life in Sprague-Dawley rat at 1 mg/kg, iv measured up to 24 hrs by LC-MS/MS analysis; assay type: ADME, organism-based; details: in vivo
# [22] = MRT (0 to infinity) in Sprague-Dawley rat at 10 mg/kg, po measured up to 24 hrs by LC-MS/MS analysis; assay type: ADME, organism-based; details: in vivo
# [23] = target: Glycogen synthase kinase-3 beta (Mus musculus) (UniProt Q9WV60); experiment: Inhibition of GSK3beta in glutamate-induced mouse HT-22 cells assessed as increase in synaptophysin level at 0.6 uM pretreated with glutamate for 24 hrs followed by compound treatment by immunocytochemistry assay; assay type: cell-based
# Glycogen synthase kinase-3 beta (Mus musculus), sequence (Q9WV60 whole entry, looked up): as the sequence (P49841 whole entry) above, with T390P, T392A, A400T, T402A counted along it
# [24] = system: Rattus norvegicus; experiment: Neuroprotective activity against amyloid beta (1 to 42)-induced suppression of synaptophysin in Sprague-Dawley rat at 5 mg/kg/day, po measured after 5 days by immunohistochemistry assay; assay type: functional, organism-based; details: time 5.0 day
# [25] = target: Glycogen synthase kinase-3 beta (Mus musculus) (UniProt Q9WV60); experiment: Inhibition of GSK3beta in mouse N2a cells overexpressing human tau assessed as decrease in tau phosphorylation at Ser 396 residue measured after 6 hrs by Western blot assay; assay type: cell-based
# [26] = system: Mus musculus; experiment: Cognitive enhancing effect in mouse model of scopolamine-induced amnesia assessed as escape latency time at 10 mg/kg/day, po measured by Morris water maze test (reference value: 17.9 sec); assay type: functional
# [27] = system: Mus musculus; experiment: Improvement in learning and spatial memory in amyloid beta (1 to 42)-induced mouse model of Alzheimer's disease assessed as increase in spontaneous alteration at 10 mg/kg/day, po pretreated with amyloid beta42 for 3 days followed by treatment with compound and measured after 9 days measured by Y-maze test; assay type: functional, organism-based; details: time 9.0 day
# [28] = Toxicity in amyloid beta (1 to 42)-induced mouse model of Alzheimer's disease assessed as changes in swimming speed at 10 mg/kg/day, po measured after 9 days; assay type: organism-based; details: in vivo, 216 h, time 9 day
# [29] = Toxicity in amyloid beta (1 to 42)-induced mouse model of Alzheimer's disease assessed as morphological changes in liver tissue at 10 mg/kg/day, po measured after 9 days by HE staining method; assay type: organism-based; details: in vivo, 216 h, time 9 day
# [30] = target: T1, Acetylcholinesterase (Mus musculus) (UniProt P21836); details: ICR, dose 10.0 mg/kg, time 1.5 hrs
# T1 sequence (whole entry): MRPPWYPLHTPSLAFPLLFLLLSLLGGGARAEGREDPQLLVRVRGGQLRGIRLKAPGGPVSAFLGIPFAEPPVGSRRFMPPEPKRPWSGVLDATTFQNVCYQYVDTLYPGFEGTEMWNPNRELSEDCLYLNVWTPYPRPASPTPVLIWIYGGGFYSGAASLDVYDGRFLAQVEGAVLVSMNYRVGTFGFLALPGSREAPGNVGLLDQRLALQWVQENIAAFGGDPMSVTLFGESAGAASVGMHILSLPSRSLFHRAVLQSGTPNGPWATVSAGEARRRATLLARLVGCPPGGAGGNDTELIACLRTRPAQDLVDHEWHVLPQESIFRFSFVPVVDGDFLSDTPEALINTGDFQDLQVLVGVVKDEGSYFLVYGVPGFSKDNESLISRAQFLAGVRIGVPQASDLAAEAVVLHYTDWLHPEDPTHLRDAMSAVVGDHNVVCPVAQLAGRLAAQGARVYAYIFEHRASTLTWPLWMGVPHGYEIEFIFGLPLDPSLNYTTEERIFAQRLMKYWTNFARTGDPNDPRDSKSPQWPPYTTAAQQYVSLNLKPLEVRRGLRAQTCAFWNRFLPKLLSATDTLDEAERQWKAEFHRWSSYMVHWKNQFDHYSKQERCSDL
# [31] = target: T1, Acetylcholinesterase (Mus musculus); details: ICR, dose 10.0 mg/kg, time 1.5 hrs; remark: listed apart in the source
# Acetylcholinesterase, sequence (P22303 whole entry): as the sequence (P22303 whole entry, looked up) above
compound,measurement,setting,value
O=C(Nc1cncc(OCC2CCN(Cc3ccc(F)cc3)CC2)c1)c1ccnc(NC(=O)C2CC2)c1,pIC50,[1],9.00
same,pIC50,[2],7.51
same,pIC50,[3],5.28
same,Selectivity Index,[4],5300
same,inhibition,[5],inactive
same,inhibition,[6],inactive
same,inhibition,[7],inactive
same,inhibition,[8],inactive
same,inhibition,[9],inactive
same,inhibition,[10],inactive
same,Papp,[11],10.5 ×10⁻⁶ cm/s
same,concentration at 1 h,[12],62 ng/g
same,concentration at 1.5 h,[13],113 ng/g
same,concentration at 1 h,[14],405 ng/g
same,concentration at 1.5 h,[15],343 ng/g
same,Kp at 1 h,[16],0.153
same,Kp at 1.5 h,[17],0.33
same,Activity,[18],66%
same,AUC(0-inf),[19],407 ng·h/mL
same,half-life,[20],7.6 h
same,half-life,[21],5.2 h
same,MRT inf,[22],10.9 h
same,inhibition,[23],Active
same,Activity,[24],Active
same,inhibition,[25],Dose-Dependent Effect
same,Time,[26],18.1 s
same,Activity,[27],Active
same,Activity,[28],Non-Toxic
same,Activity,[29],Non-Toxic
same,inhibition,[30],46.2%
same,inhibition,[31],85.5%
